Measured values published in the supplement of paper PMC10627819.

How the values were obtained:
B. subtilis 168 [1] = assay: fitness (endpoint OD595 vs no drug) (fraction); higher = more growth
In short: (§1)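 Bacterial fitness was scored as optical density at the stationary-phase transition relative to the robust mean of no-drug control wells. Scores are capped at 1. The growth data were OD595 readings every 30 min for 14 h at 37 °C, background-subtracted against the first reading, from 384-well plates inoculated at OD595 0.01 in TSB, LB Lennox or CY.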

S. aureus DSM 20231 [2] = assay: as above
In short: as §1

S. aureus Newman [3] = assay: as above
In short: as §1

S. pneumoniae D39V [4] = assay: as above
In short: as §1

B. subtilis 168 [5] = assay: Bliss interaction score (quartile over a dose matrix) (fitness difference); higher = more antagonism (negative = synergy)
In short: (§2)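 Fitness was defined as normalised growth: OD595 at the start of stationary phase divided by the plate's robust no-drug mean and capped at 1. Single-drug fitness was inferred from combination measurements. The Bliss score is observed fitness minus the product of the single-drug values, summarised by quartiles across technical, biological and donor/recipient replicates.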

S. aureus DSM 20231 [6] = assay: as above
In short: as §2

S. aureus Newman [7] = assay: as above
In short: as §2

S. pneumoniae D39V [8] = assay: as above
In short: as §2

[9] = first compound 0.0156 µg/mL, partner 0.0625 µg/mL
[10] = first compound 0.0156 µg/mL, partner 0.125 µg/mL
[11] = first compound 0.0156 µg/mL, partner 0.25 µg/mL
[12] = first compound 0.0156 µg/mL, partner 0.5 µg/mL, one replicate
[13] = first compound 0.0156 µg/mL, partner 1 µg/mL, one replicate
[14] = first compound 0.0312 µg/mL, partner 0.0625 µg/mL
[15] = first compound 0.0312 µg/mL, partner 0.125 µg/mL
[16] = first compound 0.0312 µg/mL, partner 0.25 µg/mL
[17] = first compound 0.0312 µg/mL, partner 0.5 µg/mL, one replicate
[18] = first compound 0.0312 µg/mL, partner 1 µg/mL, one replicate
[19] = first compound 0.0625 µg/mL, partner 0.0625 µg/mL
[20] = first compound 0.0625 µg/mL, partner 0.125 µg/mL
[21] = first compound 0.0625 µg/mL, partner 0.25 µg/mL
[22] = first compound 0.0625 µg/mL, partner 0.5 µg/mL, one replicate
[23] = first compound 0.0625 µg/mL, partner 1 µg/mL, one replicate
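Wherever Bliss interaction score (quartile over a dose matrix) is given: first quartile when negative (synergy) and third quartile when positive (antagonism).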
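Wherever fitness (endpoint OD595 vs no drug) is given: OD595 on entry to stationary phase over no-drug wells; at most 1.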

Compound `Cc1onc(-c2ccccc2)c1C(=O)N[C@@H]1C(=O)N2[C@@H]1SC(C)(C)[C@@H]2C(=O)O` [Oxacillin] + CC1=C\[C@@H](O)CC(=O)Cc2nc(co2)C(=O)N2CCC=C2C(=O)O[C@H](C(C)C)[C@H](C)/C=C/C(=O)NC\C=C\1 [Virginiamycin M1] has a fitness (B. subtilis 168 [1]; first compound 0.002 µg/mL, partner 0.0625 µg/mL) of 0.993, a fitness (B. subtilis 168 [1]; first compound 0.002 µg/mL, partner 0.125 µg/mL) of 0.954 and a fitness (B. subtilis 168 [1]; first compound 0.002 µg/mL, partner 0.25 µg/mL) of 0.977. The fitness (B. subtilis 168 [1]; first compound 0.004 µg/mL, partner 0.0625 µg/mL) was 0.98, the fitness (B. subtilis 168 [1]; first compound 0.004 µg/mL, partner 0.125 µg/mL) was 0.941 and the fitness (B. subtilis 168 [1]; first compound 0.004 µg/mL, partner 0.25 µg/mL) was 0.973. The fitness (B. subtilis 168 [1]; first compound 0.008 µg/mL, partner 0.0625 µg/mL) was 0.962, the fitness (B. subtilis 168 [1]; first compound 0.008 µg/mL, partner 0.125 µg/mL) was 0.905 and the fitness (B. subtilis 168 [1]; first compound 0.008 µg/mL, partner 0.25 µg/mL) was 0.962. It also gave a fitness (B. subtilis 168 [1]; first compound 0.075 µg/mL, partner 0.0625 µg/mL, one replicate) of 0.461, a fitness (B. subtilis 168 [1]; first compound 0.075 µg/mL, partner 0.125 µg/mL, one replicate) of 0.639 and a fitness (B. subtilis 168 [1]; first compound 0.075 µg/mL, partner 0.25 µg/mL, one replicate) of 0.53. For the same compound, the fitness (B. subtilis 168 [1]; first compound 0.15 µg/mL, partner 0.0625 µg/mL, one replicate) was 0.0434, the fitness (B. subtilis 168 [1]; first compound 0.15 µg/mL, partner 0.125 µg/mL, one replicate) was 0.0511 and the fitness (B. subtilis 168 [1]; first compound 0.15 µg/mL, partner 0.25 µg/mL, one replicate) was 0.0511. The fitness (B. subtilis 168 [1]; first compound 0.3 µg/mL, partner 0.0625 µg/mL, one replicate) was 0.04, the fitness (B. subtilis 168 [1]; first compound 0.3 µg/mL, partner 0.125 µg/mL, one replicate) was 0.0604 and the fitness (B. subtilis 168 [1]; first compound 0.3 µg/mL, partner 0.25 µg/mL, one replicate) was 0.0635. It also gave a fitness (S. aureus DSM 20231 [2]; [9]) of 0.803, a fitness (S. aureus DSM 20231 [2]; [10]) of 0.808 and a fitness (S. aureus DSM 20231 [2]; [11]) of 0.775. For the same compound, the fitness (S. aureus DSM 20231 [2]; [12]) was 0.835, the fitness (S. aureus DSM 20231 [2]; [13]) was 0.903 and the fitness (S. aureus DSM 20231 [2]; [14]) was 0.61. It also gave a fitness (S. aureus DSM 20231 [2]; [15]) of 0.686, a fitness (S. aureus DSM 20231 [2]; [16]) of 0.628 and a fitness (S. aureus DSM 20231 [2]; [17]) of 0.719. The fitness (S. aureus DSM 20231 [2]; [18]) was 0.746, the fitness (S. aureus DSM 20231 [2]; [19]) was 0.492 and the fitness (S. aureus DSM 20231 [2]; [20]) was 0.514. It also gave a fitness (S. aureus DSM 20231 [2]; [21]) of 0.545, a fitness (S. aureus DSM 20231 [2]; [22]) of 0.517 and a fitness (S. aureus DSM 20231 [2]; [23]) of 0.64. For the same compound, the fitness (S. aureus Newman [3]; [9]) was 0.755, the fitness (S. aureus Newman [3]; [10]) was 0.761 and the fitness (S. aureus Newman [3]; [11]) was 0.763. The fitness (S. aureus Newman [3]; [12]) was 0.815, the fitness (S. aureus Newman [3]; [13]) was 0.882 and the fitness (S. aureus Newman [3]; first compound 0.0156 µg/mL, partner 2 µg/mL, one replicate) was 0.843. It also gave a fitness (S. aureus Newman [3]; [14]) of 0.71, a fitness (S. aureus Newman [3]; [15]) of 0.709 and a fitness (S. aureus Newman [3]; [16]) of 0.694. The fitness (S. aureus Newman [3]; [17]) was 0.752, the fitness (S. aureus Newman [3]; [18]) was 0.78 and the fitness (S. aureus Newman [3]; first compound 0.0312 µg/mL, partner 2 µg/mL, one replicate) was 0.723. The fitness (S. aureus Newman [3]; [19]) was 0.622, the fitness (S. aureus Newman [3]; [20]) was 0.623 and the fitness (S. aureus Newman [3]; [21]) was 0.643. The fitness (S. aureus Newman [3]; [22]) was 0.597, the fitness (S. aureus Newman [3]; [23]) was 0.671 and the fitness (S. aureus Newman [3]; first compound 0.0625 µg/mL, partner 2 µg/mL, one replicate) was 0.676. It also gave a fitness (S. pneumoniae D39V [4]; first compound 0.01 µg/mL, partner 0.15 µg/mL, one replicate) of no less than 1, a fitness (S. pneumoniae D39V [4]; first compound 0.01 µg/mL, partner 0.3 µg/mL, one replicate) of no less than 1 and a fitness (S. pneumoniae D39V [4]; first compound 0.01 µg/mL, partner 0.5 µg/mL) of 0.986. It also gave a fitness (S. pneumoniae D39V [4]; first compound 0.01 µg/mL, partner 1 µg/mL) of 0.98, a fitness (S. pneumoniae D39V [4]; first compound 0.01 µg/mL, partner 2 µg/mL) of 0.961 and a fitness (S. pneumoniae D39V [4]; first compound 0.02 µg/mL, partner 0.15 µg/mL, one replicate) of no less than 1. For the same compound, the fitness (S. pneumoniae D39V [4]; first compound 0.02 µg/mL, partner 0.3 µg/mL, one replicate) was no less than 1, the fitness (S. pneumoniae D39V [4]; first compound 0.02 µg/mL, partner 0.5 µg/mL) was 0.964 and the fitness (S. pneumoniae D39V [4]; first compound 0.02 µg/mL, partner 1 µg/mL) was 0.965. It also gave a fitness (S. pneumoniae D39V [4]; first compound 0.02 µg/mL, partner 2 µg/mL) of 0.913, a fitness (S. pneumoniae D39V [4]; first compound 0.04 µg/mL, partner 0.15 µg/mL, one replicate) of 0.994 and a fitness (S. pneumoniae D39V [4]; first compound 0.04 µg/mL, partner 0.3 µg/mL, one replicate) of 0.989. The fitness (S. pneumoniae D39V [4]; first compound 0.04 µg/mL, partner 0.5 µg/mL) was 0.539, the fitness (S. pneumoniae D39V [4]; first compound 0.04 µg/mL, partner 1 µg/mL) was 0.568 and the Bliss interaction score (B. subtilis 168 [5]) was 0.0548. The Bliss interaction score (S. aureus DSM 20231 [6]) was -0.0341, the Bliss interaction score (S. aureus Newman [7]) was 0.0583 and the Bliss interaction score (S. pneumoniae D39V [8]) was 0.114.
